Data as given in ChEMBL document CHEMBL3046855, “Chemical control of Prosopis farcta (Banks and Sol.) Macbride in the Jordan Valley” (2007).

What was measured:
Type in all cases: functional
Prosopis farcta [1] = experiment: Herbicidal activity against Prosopis farcta assessed as shoot dry weight at 1000 l/ha applied twice followed by harvest measured after vegetative regrowth (reference value: 2.784 metric tons/ha)
Prosopis farcta [2] = experiment: Herbicidal activity against Prosopis farcta assessed as shoot fresh weight at 1000 l/ha applied twice followed by harvest measured after vegetative regrowth (reference value: 3.53 metric tons/ha)
Prosopis farcta [3] = experiment: Herbicidal activity against Prosopis farcta assessed as shoot dry weight at 1000 l/ha applied twice (reference value: 1.528 metric tons/ha)
Prosopis farcta [4] = experiment: Herbicidal activity against Prosopis farcta assessed as shoot fresh weight at 1000 l/ha applied twice (reference value: 4.18 metric tons/ha)
Prosopis farcta [5] = experiment: Herbicidal activity against Prosopis farcta assessed as shoot dry weight at 1000 l/ha applied once followed by harvest measured after vegetative regrowth (reference value: 1.593 metric tons/ha)
Prosopis farcta [6] = experiment: Herbicidal activity against Prosopis farcta assessed as shoot fresh weight at 1000 l/ha applied once followed by harvest measured after vegetative regrowth (reference value: 2.062 metric tons/ha)
Prosopis farcta [7] = experiment: Herbicidal activity against Prosopis farcta assessed as shoot dry weight at 1000 l/ha applied once (reference value: 0.833 metric tons/ha)
Prosopis farcta [8] = experiment: Herbicidal activity against Prosopis farcta assessed as shoot fresh weight at 1000 l/ha applied once (reference value: 1.72 metric tons/ha)

| SMILES | Activity (Prosopis farcta [1]) [MT/ha] | Activity (Prosopis farcta [2]) [MT/ha] | Activity (Prosopis farcta [3]) [MT/ha] | Activity (Prosopis farcta [4]) [MT/ha] | Activity (Prosopis farcta [5]) [MT/ha] | Activity (Prosopis farcta [6]) [MT/ha] | Activity (Prosopis farcta [7]) [MT/ha] | Activity (Prosopis farcta [8]) [MT/ha] |
| --- | --- | --- | --- | --- | --- | --- | --- | --- |
| O=C(O)COc1nc(Cl)c(Cl)cc1Cl [TRICLOPYR] | 0.05 | 0.05 | 0.461 | 1.07 | 0.231 | 0.301 | 0.567 | 1.21 |
| CCCCC(CC)COC(=O)COc1ccc(Cl)cc1Cl (stereo unspecified) | 0.063 | 0.1 | 0.365 | 0.8 | 0.213 | 0.277 | 0.625 | 1.33 |
| CCOc1cc(Oc2ccc(C(F)(F)F)cc2Cl)ccc1[N+](=O)[O-] [OXYFLUORFEN] | 1.147 | 1.47 | 0.479 | 0.96 | 3.481 | 4.511 | 0.26 | 0.6 |
| Cc1cc(Cl)ccc1OC(C)C(=O)O (stereo unspecified) [MECOPROP] | 1.125 | 1.46 | 0.403 | 0.93 | 0.527 | 0.655 | 0.423 | 0.9 |
| C[n+]1ccc(-c2cc[n+](C)cc2)cc1 [PARAQUAT] | 0.764 | 0.91 | 0.404 | 0.93 | 0.647 | 0.757 | 0.593 | 1.27 |
| O=C(O)CNCP(=O)(O)O [GLYPHOSATE] | 0.976 | 1.23 | 0.32 | 0.71 | 0.317 | 0.432 | 0.491 | 1.05 |
| CNC.O=C(O)COc1ccc(Cl)cc1Cl [2,4-D-Dimethylammonium] | 0.511 | 0.58 | 0.345 | 0.8 | 0.144 | 0.323 | 0.593 | 1.27 |
